Measurements: ChEMBL document CHEMBL1914439, “Novel 1-alkynyl substituted 1,2-dihydroquinoline derivatives from nimesulide (and their 2-oxo analogues): a new strategy to identify inhibitors of PDE4B” (2011)

Legend:
[1] = biological target: 3',5'-cyclic-AMP phosphodiesterase 4B (Homo sapiens) (UniProt Q07343); assay: Inhibition of recombinant His-tagged PDE4B expressed in Sf9 cells using cAMP as substrate at 30 uM preincubated for 15 mins measured after 1 hr by multilabel plate reader
RAW264.7 [2] = assay: Antiinflammatory activity in mouse RAW264.7 cells assessed as inhibition of LPS-induced TNFalpha challenge at 30 uM preincubated for 30 mins before LPS challenge by ELISA; format: functional
[3] = biological target: 3',5'-cyclic-AMP phosphodiesterase 4B (Homo sapiens) (UniProt Q07343); assay: Inhibition of recombinant His-tagged PDE4B expressed in Sf9 cells using cAMP as substrate at 3 uM preincubated for 15 mins measured after 1 hr by multilabel plate reader
RAW264.7 [4] = assay: Antiinflammatory activity in mouse RAW264.7 cells assessed as inhibition of LPS-induced TNFalpha challenge at 10 uM preincubated for 30 mins before LPS challenge by ELISA; format: functional
[5] = biological target: 3',5'-cyclic-AMP phosphodiesterase 4B (Homo sapiens) (UniProt Q07343); assay: Inhibition of recombinant His-tagged PDE4B expressed in Sf9 cells using cAMP as substrate at 10 uM preincubated for 15 mins measured after 1 hr by multilabel plate reader
[6] = biological target: 3',5'-cyclic-AMP phosphodiesterase 4B (Homo sapiens) (UniProt Q07343); assay: Inhibition of recombinant His-tagged PDE4B expressed in Sf9 cells using cAMP as substrate at 1 uM preincubated for 15 mins measured after 1 hr by multilabel plate reader
[7] = biological target: 3',5'-cyclic-AMP phosphodiesterase 4B (Homo sapiens) (UniProt Q07343); assay: Inhibition of recombinant His-tagged PDE4B expressed in Sf9 cells using cAMP as substrate at 0.3 uM preincubated for 15 mins measured after 1 hr by multilabel plate reader

Chain of 3',5'-cyclic-AMP phosphodiesterase 4B (Homo sapiens) (Q07343 whole entry): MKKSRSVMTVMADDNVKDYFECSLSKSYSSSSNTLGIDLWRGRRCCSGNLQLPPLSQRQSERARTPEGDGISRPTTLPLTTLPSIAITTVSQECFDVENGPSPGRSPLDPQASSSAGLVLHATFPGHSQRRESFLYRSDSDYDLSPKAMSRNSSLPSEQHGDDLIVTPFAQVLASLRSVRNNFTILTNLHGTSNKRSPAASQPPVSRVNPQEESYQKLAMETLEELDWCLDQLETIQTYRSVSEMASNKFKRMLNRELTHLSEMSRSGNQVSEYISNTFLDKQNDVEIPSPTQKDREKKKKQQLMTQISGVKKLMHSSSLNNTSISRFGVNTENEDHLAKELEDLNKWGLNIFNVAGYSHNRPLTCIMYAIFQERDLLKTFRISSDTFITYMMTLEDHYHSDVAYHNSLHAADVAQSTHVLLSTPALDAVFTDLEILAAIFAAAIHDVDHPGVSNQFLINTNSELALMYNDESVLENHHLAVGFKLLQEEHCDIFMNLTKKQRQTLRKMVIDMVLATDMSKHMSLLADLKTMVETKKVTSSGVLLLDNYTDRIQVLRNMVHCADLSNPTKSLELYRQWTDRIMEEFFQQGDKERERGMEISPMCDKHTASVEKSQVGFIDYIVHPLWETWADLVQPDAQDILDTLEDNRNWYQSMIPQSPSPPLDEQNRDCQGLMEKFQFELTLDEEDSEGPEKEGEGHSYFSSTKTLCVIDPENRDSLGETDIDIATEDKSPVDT

| inhibition [1] [%] | Structure (SMILES) | also measured |
| --- | --- | --- |
| 37.4 | CC1=CC(C)(C)N(CC#Cc2ccccc2[N+](=O)[O-])c2cc(Oc3ccccc3)c(NS(C)(=O)=O)cc21 |  |
| 33.1 | COC(=O)c1ccccc1C#CCN1c2cc(Oc3ccccc3)c(NS(C)(=O)=O)cc2C(C)=CC1(C)C | inhibition at 30 µM (RAW264.7 [2]): 47%; inhibition [3]: 16%; inhibition at 10 µM (RAW264.7 [4]): 35%; inhibition [5]: 23%; inhibition [6]: 11%; inhibition [7]: 10% |
| 40.3 | CC1=CC(C)(C)N(CC#Cc2ccccc2Cl)c2cc(Oc3ccccc3)c(NS(C)(=O)=O)cc21 |  |

Second part, the compound before the results:

| Structure (SMILES) | inhibition [1] [%] | also measured |
| --- | --- | --- |
| O=Cc1cc2ccccc2n(CC#Cc2cccc([N+](=O)[O-])c2)c1=O | 22.6 |  |
| COc1ccc(C#CCn2c(=O)c(C=O)cc3ccccc32)cc1 | 22.6 |  |
| O=Cc1cc2ccccc2n(CC#Cc2ccc(Cl)cc2)c1=O | 26.5 |  |
| CC1=CC(C)(C)N(CC#Cc2ccc([N+](=O)[O-])cc2)c2cc(Oc3ccccc3)c(NS(C)(=O)=O)cc21 | 35.1 |  |
| O=Cc1cc2ccccc2n(CC#Cc2ccc([N+](=O)[O-])cc2)c1=O | 4.15 |  |
| O=Cc1cc2ccccc2n(CC#Cc2ccccc2Cl)c1=O | 54.4 |  |
| CC1=CC(C)(C)N(CC#Cc2cccc([N+](=O)[O-])c2)c2cc(Oc3ccccc3)c(NS(C)(=O)=O)cc21 | 41.6 |  |
| Cc1ccccc1C#CCn1c(=O)c(C=O)cc2ccccc21 | 45.5 |  |
